According to publication PMC8115619, “Generation of a chemical genetic model for JAK3” (Scientific Reports, 2021):
Where two headings read alike, the source gives them in different places.

Assays:
[1] = tested on: IL-4 induced STAT6 phosphorylation in wild type BMDMs; test: IL-4 induced STAT6 phosphorylation in wild type BMDMs (immunoblot); format: cell-based; details: Mus musculus, BMDM, 0.5 h; 10 ng/ml IL-4 30 min, pSTAT6 Tyr641 immunoblot, two independent experiments
Description: (§1) Figure 3 Effect of JAK3 inhibitors on IL-4 induced STAT6 phosphorylation. BMDMs were isolated from wild type and JAK3 Cys905Ser knockin mice. Cells were incubated with the indicated concentrations of inhibitor before stimulation for 30 min with 10 ng/ml IL-4. Cells were lysed and the levels of STAT6 phosphorylated at Tyr641 were assessed by immunoblotting. Levels of ERK1/2 were determined as a loading control.
(§2) Bone marrow derived macrophages (BMDMs) were cultured as described. Briefly, bone marrow was flushed in PBS from the femurs and tibias of mice. Cells were cultured on bacterial grade plastic for 7 days at 37 °C, 5% CO2. Cells were then detached using Versene (Gibco), re-plated on tissue culture plastic in BMDM media (in DMEM supplemented with 10% heat inactivated FBS (Labtech), 2 mM L-glutamine, 100 U/ml penicillin G, 100 μg/ml streptomycin and 0.25 μg/ml amphotericin, 5 ng/ml M-CSF) and used within 48 h. Where indicated cells were stimulated with 10 ng/ml IL-4, 10 ng/ml GM-CSF, 10 ng/ml IL-10 or 10 ng/ml IFNβ. All cytokines were from PeproTech.
(§3) Cells were lysed directly into SDS sample buffer and aliquots run on 10% polyacrylamide gels using standard methods. Proteins were transferred onto nitrocellulose membranes, and specific proteins were detected by immunoblotting. Antibodies against tyrosine phosphorylated STATs were from Cell Signaling Technology (phospho-STAT1 #9167, phospho-STAT3 #9131, phospho-STAT5 #4322 and phospho-STAT6 #9361). The total ERK1/2 antibody used as a loading control was also from cell Signaling Technology (#4695). HRP-conjugated secondary antibodies were obtained from Pierce. Bands were detected using Clarity ECL reagents from BioRad and imaged on a Licor Odyssey Fc system. Quantification was carried out using Licor Image Studio software. After correction for the ERK1/2 levels to account for loading differences, percentage inhibition was calculated relative to the IL-4 stimulated condition. IC50 values were calculated using the same methods as for the in vitro IC50 values.

[2] = tested on: IL-4 induced STAT6 phosphorylation in BMDMs from JAK3 Cys905Ser knockin mice; test: IL-4 induced STAT6 phosphorylation in JAK3 Cys905Ser knockin BMDMs (immunoblot); format: cell-based, mouse; details: for IC50: Mus musculus, BMDM, 0.5 h, 10 ng/ml IL-4 30 min, pSTAT6 Tyr641 immunoblot, two independent experiments
Description: as §1, §2, §3

[3] = molecular target: CK2 (Homo sapiens, UniProt P68400); test: Selectivity screen CK2; format: biochemical; details: 1 µM inhibitor, mean
CK2, sequence (P68400 whole entry): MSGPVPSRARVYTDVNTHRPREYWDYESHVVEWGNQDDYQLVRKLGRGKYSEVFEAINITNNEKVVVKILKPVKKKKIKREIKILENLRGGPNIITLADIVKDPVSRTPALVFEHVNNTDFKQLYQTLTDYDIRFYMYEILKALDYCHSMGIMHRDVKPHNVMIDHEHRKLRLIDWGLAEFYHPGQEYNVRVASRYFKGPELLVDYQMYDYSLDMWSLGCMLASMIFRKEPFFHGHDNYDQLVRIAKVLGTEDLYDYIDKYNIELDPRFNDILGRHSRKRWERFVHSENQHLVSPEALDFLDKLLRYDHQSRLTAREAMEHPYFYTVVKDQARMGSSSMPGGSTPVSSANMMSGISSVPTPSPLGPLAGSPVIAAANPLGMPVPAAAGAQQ
Description: (§4) For the in vitro kinase assay, JAK3 (5–20 mU diluted in 50 mM Tris pH 7.5, 0.1 mM EGTA, 0.05% β-mercaptoethanol, 1 mg/ml BSA) was assayed against PDKtide ([…]) in a final volume of 25.5 µl containing 50 mM Tris pH 7.5, 0.1 mM EGTA, 0.05% β-mercaptoethanol, 100 µM substrate peptide, 10 mM magnesium acetate and 0.02 mM [33P-γ-ATP] (50–1000 cpm/pmole) and incubated for 30 min at room temperature. Assays were started by the addition of the ATP and stopped by addition of 5 µl of 0.5 M (3%) orthophosphoric acid and then harvested onto P81 Unifilter plates with a wash buffer of 50 mM orthophosphoric acid. To determine the Km for ATP, assays were run using 1, 5, 10, 20, 50, 100, 200, 400, 500 μM ATP and Km derived by non-linear regression fitting to the Michaelis–Menten equation v = Vmax[S]/(Km + [S]). IC50 values for inhibitors via non-linear regression using a parameter model: Y = Bottom + (Top–Bottom)/(1 + (IC50/X)^HillSlope). Non-linear regression was carried out in Prism (version 8). In vitro selectivity screen was carried out as described previously.

[4] = molecular target: EPH-A2 (Homo sapiens, UniProt P29317); test: Selectivity screen EPH-A2; format: biochemical; details: 1 µM inhibitor, mean
EPH-A2, sequence (P29317 24-976): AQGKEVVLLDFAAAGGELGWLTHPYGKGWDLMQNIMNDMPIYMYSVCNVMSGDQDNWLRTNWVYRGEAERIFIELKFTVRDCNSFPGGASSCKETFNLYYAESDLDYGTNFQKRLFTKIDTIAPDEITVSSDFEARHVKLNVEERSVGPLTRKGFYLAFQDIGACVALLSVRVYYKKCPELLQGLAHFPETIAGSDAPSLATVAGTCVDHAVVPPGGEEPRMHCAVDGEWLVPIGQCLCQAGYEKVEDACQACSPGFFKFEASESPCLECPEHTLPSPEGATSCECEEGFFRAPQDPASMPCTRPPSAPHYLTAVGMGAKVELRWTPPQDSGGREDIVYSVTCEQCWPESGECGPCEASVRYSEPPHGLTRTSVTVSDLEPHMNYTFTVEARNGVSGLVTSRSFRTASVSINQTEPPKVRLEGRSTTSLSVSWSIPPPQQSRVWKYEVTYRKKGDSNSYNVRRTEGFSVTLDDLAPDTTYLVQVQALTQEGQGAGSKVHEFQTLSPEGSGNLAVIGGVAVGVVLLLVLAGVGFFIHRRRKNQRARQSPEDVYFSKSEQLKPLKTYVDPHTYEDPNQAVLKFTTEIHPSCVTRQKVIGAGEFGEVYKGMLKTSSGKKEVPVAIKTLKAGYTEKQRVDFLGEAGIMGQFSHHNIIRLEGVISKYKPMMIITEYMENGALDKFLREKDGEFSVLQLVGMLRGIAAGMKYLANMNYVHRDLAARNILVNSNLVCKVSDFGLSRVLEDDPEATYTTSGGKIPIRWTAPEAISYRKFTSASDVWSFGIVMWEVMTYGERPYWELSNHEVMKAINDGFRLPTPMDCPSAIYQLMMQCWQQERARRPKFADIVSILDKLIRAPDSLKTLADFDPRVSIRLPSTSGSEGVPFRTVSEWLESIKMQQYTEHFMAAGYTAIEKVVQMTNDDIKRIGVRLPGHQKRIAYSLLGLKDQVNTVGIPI
Description: as §4

[5] = molecular target: EPH-B1 (Homo sapiens, UniProt P54762); test: Selectivity screen EPH-B1; format: biochemical; details: 1 µM inhibitor, mean
EPH-B1, sequence (P54762 18-984): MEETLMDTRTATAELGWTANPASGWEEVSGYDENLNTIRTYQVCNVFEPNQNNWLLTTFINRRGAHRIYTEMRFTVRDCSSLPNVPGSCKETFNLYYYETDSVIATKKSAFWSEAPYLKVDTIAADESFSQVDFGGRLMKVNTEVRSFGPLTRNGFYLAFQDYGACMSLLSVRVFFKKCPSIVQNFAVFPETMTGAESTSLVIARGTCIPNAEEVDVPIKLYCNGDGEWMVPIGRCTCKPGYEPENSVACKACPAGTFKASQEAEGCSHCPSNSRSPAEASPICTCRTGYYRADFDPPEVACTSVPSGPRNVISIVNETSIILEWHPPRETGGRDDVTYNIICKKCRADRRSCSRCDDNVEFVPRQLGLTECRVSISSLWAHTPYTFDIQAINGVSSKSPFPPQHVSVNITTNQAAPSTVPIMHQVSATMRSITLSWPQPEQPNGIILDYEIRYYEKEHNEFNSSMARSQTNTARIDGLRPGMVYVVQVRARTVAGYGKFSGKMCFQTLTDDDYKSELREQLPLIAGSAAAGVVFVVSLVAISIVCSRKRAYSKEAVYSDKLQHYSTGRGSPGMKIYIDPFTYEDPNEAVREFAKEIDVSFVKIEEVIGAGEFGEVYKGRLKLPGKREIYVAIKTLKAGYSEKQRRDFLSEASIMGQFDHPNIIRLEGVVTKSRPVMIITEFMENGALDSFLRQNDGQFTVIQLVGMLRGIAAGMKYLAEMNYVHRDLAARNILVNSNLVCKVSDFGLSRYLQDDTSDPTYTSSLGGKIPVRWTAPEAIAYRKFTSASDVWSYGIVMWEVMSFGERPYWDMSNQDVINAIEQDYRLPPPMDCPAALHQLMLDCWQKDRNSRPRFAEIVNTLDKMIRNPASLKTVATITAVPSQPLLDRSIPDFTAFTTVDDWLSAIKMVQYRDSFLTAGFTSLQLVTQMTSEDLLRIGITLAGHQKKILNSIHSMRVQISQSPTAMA
Description: as §4

[6] = molecular target: EPH-B4 (Homo sapiens, UniProt P54760); test: Selectivity screen EPH-B4; format: biochemical; details: 1 µM inhibitor, mean
EPH-B4, sequence (P54760 16-987): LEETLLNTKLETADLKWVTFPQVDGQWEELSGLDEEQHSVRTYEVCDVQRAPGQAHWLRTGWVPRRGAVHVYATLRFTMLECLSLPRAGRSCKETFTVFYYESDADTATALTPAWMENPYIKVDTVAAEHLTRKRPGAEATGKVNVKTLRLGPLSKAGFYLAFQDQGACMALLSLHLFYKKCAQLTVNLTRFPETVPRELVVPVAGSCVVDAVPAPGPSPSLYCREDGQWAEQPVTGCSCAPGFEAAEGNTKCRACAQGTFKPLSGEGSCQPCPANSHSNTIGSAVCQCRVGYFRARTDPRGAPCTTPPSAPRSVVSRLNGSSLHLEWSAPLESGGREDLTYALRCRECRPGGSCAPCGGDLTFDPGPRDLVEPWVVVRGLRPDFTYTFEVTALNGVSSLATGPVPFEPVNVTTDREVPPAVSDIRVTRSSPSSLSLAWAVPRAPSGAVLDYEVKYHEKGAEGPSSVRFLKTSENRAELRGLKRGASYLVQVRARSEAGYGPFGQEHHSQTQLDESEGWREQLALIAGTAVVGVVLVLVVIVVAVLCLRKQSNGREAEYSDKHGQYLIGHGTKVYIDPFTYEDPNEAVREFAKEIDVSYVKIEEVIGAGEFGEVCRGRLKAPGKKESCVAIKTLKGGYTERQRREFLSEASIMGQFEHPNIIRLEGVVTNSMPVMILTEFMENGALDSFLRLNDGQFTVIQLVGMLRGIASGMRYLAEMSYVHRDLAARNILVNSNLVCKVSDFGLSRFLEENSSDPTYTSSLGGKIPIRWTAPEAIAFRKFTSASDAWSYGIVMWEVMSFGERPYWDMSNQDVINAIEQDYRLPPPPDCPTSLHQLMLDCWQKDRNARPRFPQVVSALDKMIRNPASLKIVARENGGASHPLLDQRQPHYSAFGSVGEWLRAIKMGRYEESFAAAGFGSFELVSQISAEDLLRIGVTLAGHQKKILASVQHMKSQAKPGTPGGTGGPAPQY
Description: as §4

[7] = molecular target: IKKb (Homo sapiens, UniProt O14920); test: Selectivity screen IKKb; format: biochemical; details: 1 µM inhibitor, mean
Description: as §4

[8] = molecular target: IKKe (Homo sapiens, UniProt Q14164); test: Selectivity screen IKKe; format: biochemical; details: 1 µM inhibitor, mean
Description: as §4

[9] = molecular target: JNK2 (Homo sapiens, UniProt P45984); test: Selectivity screen JNK2; format: biochemical; details: 1 µM inhibitor, mean
Description: as §4

[10] = molecular target: MAPKAP-K2 (Homo sapiens, UniProt P49137); test: Selectivity screen MAPKAP-K2; format: biochemical; details: 1 µM inhibitor, mean
MAPKAP-K2, sequence (P49137 whole entry): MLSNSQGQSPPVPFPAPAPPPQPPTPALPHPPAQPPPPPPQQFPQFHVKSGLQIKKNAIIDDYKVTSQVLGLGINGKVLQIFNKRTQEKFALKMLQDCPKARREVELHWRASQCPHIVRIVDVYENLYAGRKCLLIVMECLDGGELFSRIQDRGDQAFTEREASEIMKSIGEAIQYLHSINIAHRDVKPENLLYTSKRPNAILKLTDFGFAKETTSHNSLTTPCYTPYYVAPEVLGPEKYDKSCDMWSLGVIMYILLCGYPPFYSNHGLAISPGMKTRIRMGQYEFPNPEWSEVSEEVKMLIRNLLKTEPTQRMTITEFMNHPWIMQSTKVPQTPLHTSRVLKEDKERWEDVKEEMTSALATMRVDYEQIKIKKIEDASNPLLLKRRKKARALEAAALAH
Description: as §4

[11] = molecular target: MAPKAP-K3 (Homo sapiens, UniProt Q16644); test: Selectivity screen MAPKAP-K3; format: biochemical; details: 1 µM inhibitor, mean
Description: as §4

[12] = molecular target: MARK4 (Homo sapiens, UniProt Q96L34); test: Selectivity screen MARK4; format: biochemical; details: 1 µM inhibitor, mean
Description: as §4

[13] = molecular target: PAK4 (Homo sapiens, UniProt O96013); test: Selectivity screen PAK4; format: biochemical; details: 1 µM inhibitor, mean
Description: as §4

[14] = tested on: PHK; test: Selectivity screen PHK; format: biochemical; details: 1 µM inhibitor, mean
Description: as §4

[15] = molecular target: PINK (Tribolium castaneum, UniProt D6WMX4); test: Selectivity screen PINK; format: biochemical; details: 1 µM inhibitor, mean
Description: as §4

[16] = molecular target: PKA (Homo sapiens, UniProt P17612); test: Selectivity screen PKA; format: biochemical; details: 1 µM inhibitor, mean
Description: as §4

[17] = molecular target: RSK1 (Homo sapiens, UniProt Q15418); test: Selectivity screen RSK1; format: biochemical; details: 1 µM inhibitor, mean
Description: as §4

[18] = molecular target: SGK1 (Homo sapiens, UniProt O00141); test: Selectivity screen SGK1; format: biochemical; details: 1 µM inhibitor, mean
Description: as §4

[19] = molecular target: SIK2 (Homo sapiens, UniProt Q9H0K1); test: Selectivity screen SIK2; format: biochemical; details: 1 µM inhibitor, mean
Description: as §4

[20] = molecular target: SIK3 (Homo sapiens, UniProt Q9Y2K2); test: Selectivity screen SIK3; format: biochemical; details: 1 µM inhibitor, mean
Description: as §4

[21] = molecular target: SYK (Homo sapiens, UniProt P43405); test: Selectivity screen SYK; format: biochemical; details: 1 µM inhibitor, mean
Description: as §4

[22] = molecular target: TLK1 (Homo sapiens, UniProt Q9UKI8); test: Selectivity screen TLK1; format: biochemical; details: 1 µM inhibitor, mean
Description: as §4

[23] = molecular target: ULK2 (Homo sapiens, UniProt Q8IYT8); test: Selectivity screen ULK2; format: biochemical; details: 1 µM inhibitor, mean
ULK2, sequence (Q8IYT8 whole entry): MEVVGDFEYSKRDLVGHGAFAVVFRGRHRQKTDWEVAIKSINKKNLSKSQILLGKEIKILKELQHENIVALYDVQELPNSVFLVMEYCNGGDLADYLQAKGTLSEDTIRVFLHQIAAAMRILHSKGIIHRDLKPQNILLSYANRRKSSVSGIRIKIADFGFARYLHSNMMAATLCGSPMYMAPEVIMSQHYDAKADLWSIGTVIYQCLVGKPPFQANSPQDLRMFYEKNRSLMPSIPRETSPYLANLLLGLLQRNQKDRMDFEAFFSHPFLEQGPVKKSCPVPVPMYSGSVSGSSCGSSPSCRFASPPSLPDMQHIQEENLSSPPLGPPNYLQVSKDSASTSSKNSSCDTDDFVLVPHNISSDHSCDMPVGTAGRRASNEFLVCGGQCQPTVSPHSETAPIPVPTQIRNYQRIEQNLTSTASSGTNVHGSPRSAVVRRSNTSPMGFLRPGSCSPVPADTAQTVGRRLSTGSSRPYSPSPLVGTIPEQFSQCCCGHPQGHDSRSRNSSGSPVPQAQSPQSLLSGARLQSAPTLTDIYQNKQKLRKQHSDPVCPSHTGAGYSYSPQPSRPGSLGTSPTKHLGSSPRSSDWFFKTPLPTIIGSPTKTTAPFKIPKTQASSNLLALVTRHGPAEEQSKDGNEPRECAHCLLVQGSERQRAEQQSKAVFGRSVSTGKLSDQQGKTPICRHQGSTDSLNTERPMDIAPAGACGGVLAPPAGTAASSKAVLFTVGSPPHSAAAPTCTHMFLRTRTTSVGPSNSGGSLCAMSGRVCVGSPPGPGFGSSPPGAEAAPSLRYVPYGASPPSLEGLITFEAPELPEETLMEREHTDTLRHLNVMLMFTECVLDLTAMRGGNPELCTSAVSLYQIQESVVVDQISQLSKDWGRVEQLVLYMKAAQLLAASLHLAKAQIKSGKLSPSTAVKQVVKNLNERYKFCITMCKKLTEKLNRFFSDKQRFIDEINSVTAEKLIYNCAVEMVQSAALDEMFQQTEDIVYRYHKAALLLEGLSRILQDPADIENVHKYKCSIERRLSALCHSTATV
Description: as §4

[24] = tested on: TYK2; details: read-out: In vitro IC50 TYK2, cited from earlier work

Row | SMILES | IC50 [1] [nM] | IC50 [2] [nM] | activity remaining in the presence of the inhibitor: CK2 [3] | activity remaining in the presence of the inhibitor: EPH-A2 [4] | activity remaining in the presence of the inhibitor: EPH-B1 [5] | activity remaining in the presence of the inhibitor: EPH-B4 [6] | activity remaining in the presence of the inhibitor: IKKb [7] | activity remaining in the presence of the inhibitor: IKKe [8] | activity remaining in the presence of the inhibitor: JNK2 [9] | activity remaining in the presence of the inhibitor: MAPKAP-K2 [10] | activity remaining in the presence of the inhibitor: MAPKAP-K3 [11] | activity remaining in the presence of the inhibitor: MARK4 [12] | activity remaining in the presence of the inhibitor: PAK4 [13] | activity remaining in the presence of the inhibitor: PHK [14] | activity remaining in the presence of the inhibitor: PINK [15] | activity remaining in the presence of the inhibitor: PKA [16] | activity remaining in the presence of the inhibitor: RSK1 [17] | activity remaining in the presence of the inhibitor: SGK1 [18] | activity remaining in the presence of the inhibitor: SIK2 [19] | activity remaining in the presence of the inhibitor: SIK3 [20] | further results
1 | C=CC(=O)Nc1cccc(CNc2nc(Nc3ccc(N4CCOCC4)cc3)ncc2Cl)c1 [TL8-52] | 100 | 540 | 103 | 87 | 75 | 104 | 104 | 34 | 95 | 97 | 62 | 28 | 85 | 78 | 110 | 74 | 60 | 89 | 31 | 59 | activity remaining in the presence of the inhibitor: SYK [21]: 63; activity remaining in the presence of the inhibitor: TLK1 [22]: 82; activity remaining in the presence of the inhibitor: ULK2 [23]: 92; IC50 ([24]; ATP 25 μM): 320 nM
2 | C=CC(=O)Nc1cccc(CNc2nc(Nc3ccc(N4CCN(C)CC4)cc3OC)ncc2Cl)c1 [TL6-144] | 550 | […] | 103 | 72 | 85 | 83 | […] | […] | 98 | 103 | 119 | 76 | 99 | 40 | 107 | 104 | 61 | […] | 58 | 89 | inhibition of IL-4 induced STAT6 phosphorylation, JAK3 Cys905Ser knockin BMDMs ([2]; 10 μM inhibitor): did not inhibit; activity remaining in the presence of the inhibitor: SYK [21]: 107; activity remaining in the presence of the inhibitor: TLK1 [22]: 102; activity remaining in the presence of the inhibitor: ULK2 [23]: 63; IC50 ([24]; ATP 25 μM): […]
3 | C=CC(=O)N1C[C@H](Nc2ncnc3[nH]ccc23)CC[C@@H]1C [PF-06651600, 1-((2S,5R)-5-((7H-Pyrrolo[2,3-d]pyrimidin-4-yl)amino)-2-methylpiperidin-1-yl)prop-2-en-1-one, reference compound] | 560 | > 10000 |  |  |  |  |  |  |  |  |  |  |  |  |  |  |  |  |  |  | IC50 ([24]; ATP 12 μM): > 10000 nM
